Test results as given in ChEMBL document CHEMBL3421530, “Azepinone-Containing Tetrapeptide Analogues of Melanotropin Lead to Selective hMC4R Agonists and hMC5R Antagonist” (ACS Med Chem Lett, 2015).

Legend:
[1] = Retention time of the compound; assay type: physicochemical
Melanocortin receptor 4 [2] = molecular target: T1, Melanocortin receptor 4 (Homo sapiens, UniProt P32245); assay: Displacement of [125I]-NDP-alpha-MSH from human MC4 receptor expressed in HEK293 cells by gamma counting analysis; assay type: cell-based
Melanocortin receptor 3 [3] = molecular target: T2, Melanocortin receptor 3 (Homo sapiens, UniProt P41968); assay: Activity at human MC3 receptor expressed in HEK293 cells assessed as cAMP accumulation by luminescence counter; assay type: functional, cell-based
Melanocortin receptor 3 [4] = molecular target: T2, Melanocortin receptor 3; assay: Displacement of [125I]-NDP-alpha-MSH from human MC3 receptor expressed in HEK293 cells by gamma counting analysis; assay type: cell-based
Melanocortin receptor 4 [5] = molecular target: T1, Melanocortin receptor 4; assay: Displacement of [125I]-NDP-alpha-MSH from human MC4 receptor expressed in HEK293 cells at 10 uM by gamma counting analysis; assay type: cell-based
Melanocortin receptor 5 [6] = molecular target: T3, Melanocortin receptor 5 (Homo sapiens, UniProt P33032); assay: Antagonist activity at human MC5 receptor expressed in HEK293 cells assessed as cAMP accumulation at 10 uM by luminescence counter relative to MT-II; assay type: functional, cell-based; design: scale not given: the % may be the effect or the level left
Melanocortin receptor 3 [7] = molecular target: T2, Melanocortin receptor 3; assay: Displacement of [125I]-NDP-alpha-MSH from human MC3 receptor expressed in HEK293 cells at 10 uM by gamma counting analysis; assay type: cell-based
[8] = molecular target: T4, Melanocyte-stimulating hormone receptor (Homo sapiens, UniProt Q01726); assay: Activity at human MC1 receptor expressed in HEK293 cells assessed as cAMP accumulation by luminescence counter; assay type: functional, cell-based
Target sequence in this assay (Q01726 whole entry): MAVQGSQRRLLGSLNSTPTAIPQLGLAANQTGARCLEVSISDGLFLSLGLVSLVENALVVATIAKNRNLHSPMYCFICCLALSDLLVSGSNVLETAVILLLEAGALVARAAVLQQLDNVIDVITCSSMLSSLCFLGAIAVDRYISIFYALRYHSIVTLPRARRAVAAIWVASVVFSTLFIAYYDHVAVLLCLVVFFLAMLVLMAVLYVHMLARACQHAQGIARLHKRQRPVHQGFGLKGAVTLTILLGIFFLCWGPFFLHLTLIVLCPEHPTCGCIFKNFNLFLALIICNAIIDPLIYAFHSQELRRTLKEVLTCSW

Melanocortin receptor 3 [9] = molecular target: T2, Melanocortin receptor 3; assay: Activity at human MC3 receptor expressed in HEK293 cells assessed as cAMP accumulation at 10 uM by luminescence counter relative to MT-II; assay type: functional, cell-based
Melanocortin receptor 5 [10] = molecular target: T3, Melanocortin receptor 5; assay: Displacement of [125I]-NDP-alpha-MSH from human MC5 receptor expressed in HEK293 cells by gamma counting analysis; assay type: cell-based
[11] = molecular target: T4, Melanocyte-stimulating hormone receptor; assay: Displacement of [125I]-NDP-alpha-MSH from human MC1 receptor expressed in HEK293 cells by gamma counting analysis; assay type: cell-based
Target sequence in this assay (Q01726 whole entry): as above

Melanocortin receptor 5 [12] = molecular target: T3, Melanocortin receptor 5; assay: Antagonist activity at human MC5 receptor expressed in HEK293 cells assessed as cAMP accumulation by luminescence counter; assay type: functional, cell-based
Melanocortin receptor 4 [13] = molecular target: T1, Melanocortin receptor 4; assay: Agonist activity at human MC4 receptor expressed in HEK293 cells assessed as cAMP accumulation at 10 uM by luminescence counter relative to MT-II; assay type: functional, cell-based
[14] = molecular target: T4, Melanocyte-stimulating hormone receptor; assay: Displacement of [125I]-NDP-alpha-MSH from human MC1 receptor expressed in HEK293 cells at 10 uM by gamma counting analysis; assay type: cell-based
Target sequence in this assay (Q01726 whole entry, looked up): as the sequence (Q01726 whole entry) above

Melanocortin receptor 5 [15] = molecular target: T3, Melanocortin receptor 5; assay: Displacement of [125I]-NDP-alpha-MSH from human MC5 receptor expressed in HEK293 cells at 10 uM by gamma counting analysis; assay type: cell-based
[16] = molecular target: T4, Melanocyte-stimulating hormone receptor; assay: Activity at human MC1 receptor expressed in HEK293 cells assessed as cAMP accumulation at 10 uM by luminescence counter relative to MT-II; assay type: functional, cell-based
Target sequence in this assay (Q01726 whole entry, looked up): as the sequence (Q01726 whole entry) above

Melanocortin receptor 4 [17] = molecular target: T1, Melanocortin receptor 4; assay: Agonist activity at human MC4 receptor expressed in HEK293 cells assessed as cAMP accumulation by luminescence counter; assay type: functional, cell-based

T2 sequence (P41968 whole entry): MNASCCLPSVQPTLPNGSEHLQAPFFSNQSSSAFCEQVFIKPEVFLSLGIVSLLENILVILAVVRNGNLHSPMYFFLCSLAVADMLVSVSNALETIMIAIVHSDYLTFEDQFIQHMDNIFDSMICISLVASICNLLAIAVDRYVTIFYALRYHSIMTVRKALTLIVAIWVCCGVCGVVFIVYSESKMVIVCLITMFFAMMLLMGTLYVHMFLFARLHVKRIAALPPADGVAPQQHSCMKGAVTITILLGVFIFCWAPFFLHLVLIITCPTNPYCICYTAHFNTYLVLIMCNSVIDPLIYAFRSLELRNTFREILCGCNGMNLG
T3 sequence (P33032 whole entry): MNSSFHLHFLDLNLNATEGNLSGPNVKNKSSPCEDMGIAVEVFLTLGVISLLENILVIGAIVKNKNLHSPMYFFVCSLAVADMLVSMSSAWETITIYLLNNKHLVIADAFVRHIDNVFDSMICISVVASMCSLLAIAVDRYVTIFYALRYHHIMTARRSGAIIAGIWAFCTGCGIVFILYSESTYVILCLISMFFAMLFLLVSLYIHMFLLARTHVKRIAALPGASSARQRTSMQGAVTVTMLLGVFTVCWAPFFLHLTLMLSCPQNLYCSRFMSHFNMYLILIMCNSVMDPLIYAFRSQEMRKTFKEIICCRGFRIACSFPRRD
T1 sequence (P32245 whole entry): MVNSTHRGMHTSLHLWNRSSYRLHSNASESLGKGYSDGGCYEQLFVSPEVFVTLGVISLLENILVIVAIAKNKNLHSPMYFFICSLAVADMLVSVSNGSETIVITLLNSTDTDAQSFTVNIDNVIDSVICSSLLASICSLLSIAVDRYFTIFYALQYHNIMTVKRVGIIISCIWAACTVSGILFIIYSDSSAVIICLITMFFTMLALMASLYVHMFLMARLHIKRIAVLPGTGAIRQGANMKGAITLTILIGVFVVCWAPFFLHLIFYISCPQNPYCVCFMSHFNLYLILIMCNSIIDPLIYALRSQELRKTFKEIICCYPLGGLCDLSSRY

| Compound | Retention_time [1] [min] | IC50 (Melanocortin receptor 4 [2]) [nM] | IC50 (Melanocortin receptor 3 [4]; read-out: IC50) [nM] | %max (Melanocortin receptor 4 [5]) [%] | Activity (Melanocortin receptor 5 [6]) [%] | %max (Melanocortin receptor 3 [7]) [%] | EC50 ([8]; read-out: EC50) [nM] | Activity (Melanocortin receptor 3 [9]) [%] | IC50 (Melanocortin receptor 5 [10]) [nM] | IC50 [11] [nM] | Activity (Melanocortin receptor 4 [13]) [%] | %max [14] [%] | %max (Melanocortin receptor 5 [15]) [%] | Activity [16] [%] | EC50 (Melanocortin receptor 4 [17]) [nM] | EC50 (Melanocortin receptor 3 [3]; read-out: EC50) [nM] | EC50 (Melanocortin receptor 5 [12]; hek293) | also measured |
| --- | --- | --- | --- | --- | --- | --- | --- | --- | --- | --- | --- | --- | --- | --- | --- | --- | --- | --- |
| CC(=O)N[C@H]1Cc2ccccc2CN([C@H](Cc2ccccc2)C(=O)N[C@@H](CCCNC(=N)N)C(=O)N[C@@H](Cc2c[nH]c3ccccc23)C(N)=O)C1=O | 13.35 | 220 | > 2000 | 80 | 0 | 59 | 1000 | 40 | 37.3 | 594 | 80 | 80 | 75 | 70 | 227 | 59 | Not Active |  |
| CC(=O)N[C@H]1Cc2c([nH]c3ccccc23)CN([C@H](Cc2ccccc2)C(=O)N[C@@H](CCCNC(=N)N)C(=O)N[C@@H](Cc2c[nH]c3ccccc23)C(N)=O)C1=O | 13.05 | 447 |  | 50 | 0 |  |  | 20 | 636 | 1350 | 51 | 50 | 80 | 0 | 0.3 | 52 | Not Active | IC50 (Melanocortin receptor 3 [4]; hek293): Not Active; EC50 ([8]; hek293): Not Active |
| CC(=O)N[C@H]1Cn2nncc2CN([C@H](Cc2ccccc2)C(=O)N[C@@H](CCCNC(=N)N)C(=O)N[C@@H](Cc2c[nH]c3ccccc23)C(N)=O)C1=O | 10.43 | 200 | 1000 | 80 | 0 | 55 | 750 | 20 | 137 | 4540 | 80 | 60 | 70 | 100 | 203 | 55 | Not Active |  |

Further lines, with some results ahead:

| Retention_time [1] [min] | IC50 (Melanocortin receptor 4 [2]) [nM] | IC50 (Melanocortin receptor 3 [4]; read-out: IC50) [nM] | %max (Melanocortin receptor 4 [5]) [%] | Activity (Melanocortin receptor 5 [6]) [%] | %max (Melanocortin receptor 3 [7]) [%] | EC50 ([8]; read-out: EC50) [nM] | Activity (Melanocortin receptor 3 [9]) [%] | IC50 (Melanocortin receptor 5 [10]) [nM] | IC50 [11] [nM] | Activity (Melanocortin receptor 4 [13]) [%] | %max [14] [%] | %max (Melanocortin receptor 5 [15]) [%] | Activity [16] [%] | EC50 (Melanocortin receptor 4 [17]) [nM] | EC50 (Melanocortin receptor 3 [3]; read-out: EC50) [nM] | EC50 (Melanocortin receptor 5 [12]; hek293) | Compound | also measured |
| --- | --- | --- | --- | --- | --- | --- | --- | --- | --- | --- | --- | --- | --- | --- | --- | --- | --- | --- |
| 13.94 | 6.5 | 5000 | 80 | 50 | 50 | 226 | 0 | 167 | 258 | 100 | 40 | 80 | 50 | 13 |  |  | CC(=O)N[C@H]1Cc2c([nH]c3ccccc23)CN([C@H](Cc2ccc(F)cc2)C(=O)N[C@@H](CCCNC(=N)N)C(=O)N[C@@H](Cc2c[nH]c3ccccc23)C(N)=O)C1=O | EC50 (Melanocortin receptor 3 [3]; hek293): Not Active; EC50 (Melanocortin receptor 5 [12]; read-out: EC50): 4110 nM |
| 14.85 | 200 | 100 | 100 | 0 | 100 | 700 | 50 | 70.3 | 300 | 80 | 80 | 100 | 100 | 0.3 | 2440 | Not Active | CC(=O)N[C@H]1Cc2c([nH]c3ccccc23)CN([C@H](Cc2ccc(Br)cc2)C(=O)N[C@@H](CCCNC(=N)N)C(=O)N[C@@H](Cc2c[nH]c3ccccc23)C(N)=O)C1=O |  |
